Measured values reported in patent US20120101100A1 (priority 2008, published 2012).
Counter-ions that a name gives are not always drawn.

These compounds were tested against S. aureus GyrB ATPase (Staphylococcus aureus, UniProt P0A0K8) (assay: S. aureus (SAU) GyrB ATPase inhibition, malachite green phosphate detection (E. coli GyrA + S. aureus GyrB)). Details: compound concentration of 1.0 μM unless otherwise noted; average value where assay was carried out more than once; read-out: S. aureus (SAU) GyrB ATPase % Inhibition.
Format: biochemical
Summary of the method: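 Phosphate from ATP hydrolysis (500 μM ATP) read as malachite green/molybdate absorbance at 650 nm after acid quench. Reaction: 1.25 nM S. aureus GyrB plus 1.25 nM E. coli GyrA, sheared DNA, Hepes pH 7.5 with Mg2+. IC50 fitted over 10 concentrations, normalised to DMSO (2%) and novobiocin (2 μM) controls.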

Sequence of S. aureus GyrB ATPase (P0A0K8 whole entry): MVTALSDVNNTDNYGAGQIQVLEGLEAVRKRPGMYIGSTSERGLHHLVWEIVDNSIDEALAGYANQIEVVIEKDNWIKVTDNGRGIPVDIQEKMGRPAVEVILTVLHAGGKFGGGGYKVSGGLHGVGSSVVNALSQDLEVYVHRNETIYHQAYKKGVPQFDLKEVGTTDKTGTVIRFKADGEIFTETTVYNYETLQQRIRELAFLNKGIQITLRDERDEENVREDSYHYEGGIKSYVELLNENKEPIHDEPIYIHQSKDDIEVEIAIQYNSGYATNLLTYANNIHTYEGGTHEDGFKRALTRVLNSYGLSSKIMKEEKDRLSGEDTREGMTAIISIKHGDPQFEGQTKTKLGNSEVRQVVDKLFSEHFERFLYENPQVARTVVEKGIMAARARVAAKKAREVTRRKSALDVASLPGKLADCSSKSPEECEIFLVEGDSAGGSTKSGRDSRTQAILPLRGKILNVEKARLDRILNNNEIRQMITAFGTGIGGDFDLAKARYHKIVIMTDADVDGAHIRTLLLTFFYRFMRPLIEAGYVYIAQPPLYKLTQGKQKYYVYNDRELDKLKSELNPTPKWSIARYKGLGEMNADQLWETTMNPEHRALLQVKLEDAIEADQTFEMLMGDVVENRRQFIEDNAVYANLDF
Sequence of S. aureus GyrB ATPase (P0AES4 whole entry, further chain): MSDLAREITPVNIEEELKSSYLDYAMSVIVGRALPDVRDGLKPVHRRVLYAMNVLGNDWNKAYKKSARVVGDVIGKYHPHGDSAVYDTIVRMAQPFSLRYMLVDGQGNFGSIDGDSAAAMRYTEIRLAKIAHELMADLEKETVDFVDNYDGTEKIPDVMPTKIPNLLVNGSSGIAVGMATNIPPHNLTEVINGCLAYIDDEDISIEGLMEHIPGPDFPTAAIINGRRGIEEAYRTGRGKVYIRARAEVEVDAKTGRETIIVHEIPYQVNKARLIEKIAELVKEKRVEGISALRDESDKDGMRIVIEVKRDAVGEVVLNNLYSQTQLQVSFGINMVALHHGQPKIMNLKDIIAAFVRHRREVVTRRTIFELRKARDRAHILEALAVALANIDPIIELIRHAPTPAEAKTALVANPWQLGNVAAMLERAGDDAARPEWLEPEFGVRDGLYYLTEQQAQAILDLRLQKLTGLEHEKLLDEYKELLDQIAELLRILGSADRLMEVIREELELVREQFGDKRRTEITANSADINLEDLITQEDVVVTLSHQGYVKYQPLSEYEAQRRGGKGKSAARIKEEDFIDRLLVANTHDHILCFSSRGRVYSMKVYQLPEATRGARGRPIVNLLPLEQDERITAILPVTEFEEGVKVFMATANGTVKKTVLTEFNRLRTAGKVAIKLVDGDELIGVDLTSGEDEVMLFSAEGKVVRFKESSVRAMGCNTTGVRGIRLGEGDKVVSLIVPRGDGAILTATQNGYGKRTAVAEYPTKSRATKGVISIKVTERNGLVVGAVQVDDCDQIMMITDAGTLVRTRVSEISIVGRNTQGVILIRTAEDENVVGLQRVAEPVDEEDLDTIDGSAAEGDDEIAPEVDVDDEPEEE

In order of rising inhibition at 1 µM:
1. CCNC(=O)Nc1cc(-c2nc(C(F)(F)F)cs2)c(-c2cncc(-c3nnc(C4CC4)o3)c2)cn1 [Example 166, 1-(5′-(5-Cyclopropyl-1,3,4-oxadiazol-2-yl)-4-(4-(trifluoromethyl)thiazol-2-yl)-3,3′-bipyridin-6-yl)-3-ethylurea]  72%
2. CCCNC(=O)Nc1cc(-c2nc(C(F)(F)F)cs2)c(-c2cc(-c3nnc(C)o3)cnc2OCCN(C(C)C)C(C)C)cn1 [Example 123, 1-(2′-(2-(Diisopropylamino)ethoxy)-5′-(5-methyl-1,3,4-oxadiazol-2-yl)-4-(4-(trifluoromethyl)thiazol-2-yl)-3,3′-bipyridin-6-yl)-3-propylurea]  78%
3. CCNC(=O)Nc1cc(-c2nc(C(F)(F)F)c(C)s2)c(-c2cnc(OC)c(-c3n[nH]c(=O)o3)c2)cn1 [Example 144]  90%
4. CCNC(=O)Nc1cc(-c2nc(-c3ccccc3)cs2)c(-c2cncc(S(N)(=O)=O)c2)cn1 [Example 128]  92%
5. CCNC(=O)Nc1cc(-c2nc(C(F)(F)F)cs2)c(-c2cncc(-c3c[nH]nc3C)c2)cn1 [Example 132]  92%
6. CCNC(=O)Nc1cc(-c2nc(C(F)(F)F)cs2)c(-c2cncc(-c3c[nH]c(=O)[nH]c3=O)c2)cn1 [Example 131, 1-(5′-(2,4-Dioxo-1,2,3,4-tetrahydropyrimidin-5-yl)-4-(4-(trifluoromethyl)thiazol-2-yl)-3,3′-bipyridin-6-yl)-3-ethylurea]  93%
7. CCNC(=O)Nc1cc(N2CC(C)OC(C)C2)c(-c2cncc(-c3n[nH]c(=O)o3)c2)cn1 (stereo not drawn) [Example 149]  94%
8. CCNC(=O)Nc1cc(-c2sc(C)nc2C)c(-c2cncc(-c3n[nH]c(=O)o3)c2)cn1 [Example 147]  95%
9. CCNC(=O)Nc1cc(-c2nc(C(F)(F)F)cs2)c(-c2cncc(-c3nnc(NCCCN(C)C)o3)c2)cn1 [Example 152, 1-(5′-(5-(3-(Dimethylamino)propylamino)-1,3,4-oxadiazol-2-yl)-4-(4-(trifluoromethyl)thiazol-2-yl)-3,3′-bipyridin-6-yl)-3-ethylurea]  95%
10. CCNC(=O)Nc1cc(-c2nc(C(F)(F)F)cs2)c(-c2cncc(-c3nnc(N4CCN(C(C)=O)CC4)o3)c2)cn1 [Example 156]  95%
11. CCNC(=O)Nc1cc(-c2nc(C(F)(F)F)cs2)c(-c2cc(-c3n[nH]c(=O)o3)cnc2OCCN(CC)CC)cn1 [Example 119]  96%
12. CCNC(=O)Nc1cc(-c2nc(C(F)(F)F)c(C)s2)c(-c2cc(-c3nnc(C)o3)cnc2OC2CCOCC2)cn1 [Example 142]  96%
13. CCNC(=O)Nc1cc(N2C[C@@H](C)O[C@@H](C)C2)c(-c2cncc(-c3n[nH]c(=O)o3)c2)cn1 [Example 150]  96%
14. CCNC(=O)Nc1cc(-c2nc(C(F)(F)F)cs2)c(-c2cncc(-c3nnc(N4CCN(C)CC4)o3)c2)cn1 [Example 155]  96%
15. CCNC(=O)Nc1cc(-c2nc(C(F)(F)F)cs2)c(-c2cncc(-c3nnc(NCCN(C)C)o3)c2)cn1 [Example 157]  96%
16. CCNC(=O)Nc1cc(-c2nc(C(F)(F)F)cs2)c(-c2cncc(/C(N)=N/O)c2)cn1 [Example 163, 6′-(3-Ethylureido)-N′-hydroxy-4′-(4-(trifluoromethyl)thiazol-2-yl)-3,3′-bipyridine-5-carboximidamide]  96%
17. CCNC(=O)Nc1cc(-c2nc(C(F)(F)F)cs2)c(-c2cncc(C(=N)N)c2)cn1 [Example 164, 6′-(3-Ethylureido)-4′-(4-(trifluoromethyl)thiazol-2-yl)-3,3′-bipyridine-5-carboximidamide]  96%
18. CCNC(=O)Nc1cc(-c2nc(C(F)(F)F)cs2)c(-c2cncc(-c3nn(C)c(=O)o3)c2)cn1 [Example 140]  97%
19. CCNC(=O)Nc1cc(-c2nc(C(F)(F)F)cs2)c(-c2cc(-c3nnc(C)o3)cnc2OC2CCOCC2)cn1 [Example 141]  97%
20. CCNC(=O)Nc1cc(-c2cc(C(F)(F)F)nn2C)c(-c2cncc(-c3n[nH]c(=O)o3)c2)cn1 [Example 146]  97%
21. CCNC(=O)Nc1cc(-n2cc(C(F)(F)F)cn2)c(-c2cncc(-c3n[nH]c(=O)o3)c2)cn1 [Example 148]  97%
22. CCNC(=O)Nc1cc(N2CCCC(C)(C)C2)c(-c2cncc(-c3n[nH]c(=O)o3)c2)cn1 [Example 151]  97%
23. CCNC(=O)Nc1cc(-c2nc(C(F)(F)F)cs2)c(-c2cncc(-c3nn(C(=O)N(C)C)c(=O)o3)c2)cn1 [Example 158, 5-(6′-(3-Ethylureido)-4′-(4-(trifluoromethyl)thiazol-2-yl)-3,3′-bipyridin-5-yl)-N,N-dimethyl-2-oxo-1,3,4-oxadiazole-3(2H)-carboxamide]  97%
24. CCNC(=O)Nc1cc(-c2nc(C(F)(F)F)cs2)c(-c2cncc(-c3nn(C(=O)N4CCCC4)c(=O)o3)c2)cn1 [Example 159]  97%
25. CCNC(=O)Nc1cc(-c2nc(C(F)(F)F)cs2)c(-c2cncc(-c3nn(C(C)=O)c(=O)o3)c2)cn1 [Example 161]  97%
26. CCNC(=O)Nc1cc(C2=NC(OC)(C(F)(F)F)CS2)c(-c2cncc(-c3n[nH]c(=O)o3)c2)cn1 (stereo not drawn) [Example 143]  98%
27. CCNC(=O)Nc1cc(-c2nc(C(F)(F)F)cs2)c(-c2cncc(-c3nn(CCOC)c(=O)o3)c2)cn1 [Example 160]  98%
28. CCNC(=O)Nc1cc(-c2nc(C(F)(F)F)cs2)c(-c2cncc(-c3nn(CCO)c(=O)o3)c2)cn1 [Example 162]  98%
29. CCNC(=O)Nc1cc(-n2ccc(C(F)(F)F)n2)c(-c2cncc(-c3nnc([C@@H](N)C(C)C)o3)c2)cn1 [Example 165]  98%
30. CCNC(=O)Nc1cc(-c2nc(C(F)(F)F)cs2)c(-c2ccc(F)nc2)cn1 [Example 127]  100%
31. CCNC(=O)Nc1cc(-c2nc(C(F)(F)F)c(C)s2)c(-c2cncc(-c3n[nH]c(=O)o3)c2)cn1 [Example 145]  100%
32. CCNC(=O)Nc1cc(-c2nc(C(F)(F)F)cs2)c(-c2cncc(-c3nnc(NCCOC)o3)c2)cn1 [Example 153]  100%
33. CCNC(=O)Nc1cc(-c2nc(C(F)(F)F)cs2)c(-c2cncc(-c3n[nH]c(=O)[nH]3)c2)cn1 [Example 135, 1-Ethyl-3-(5′-(5-oxo-4,5-dihydro-1H-1,2,4-triazol-3-yl)-4-(4-(trifluoromethyl)thiazol-2-yl)-3,3′-bipyridin-6-yl)urea]  101%
34. CCNC(=O)Nc1cc(-c2nc(C(F)(F)F)cs2)c(-c2nc(-c3ncnn3C)c(-c3nnc(C)o3)s2)cn1 [Example 137, 1-Ethyl-3-(5-(5-(5-methyl-1,3,4-oxadiazol-2-yl)-4-(1-methyl-1H-1,2,4-triazol-5-yl)thiazol-2-yl)-4-(4-(trifluoromethyl)thiazol-2-yl)pyridin-2-yl)urea]  101%
35. CCNC(=O)Nc1cc(-c2nc(C(F)(F)F)cs2)c(-c2cc(-c3nnc([C@@H](N)C(C)C)o3)cnc2OCCN(CC)CC)cn1 [Example 122, 1-(5′-(5-(1-amino-2-methylpropyl)-1,3,4-oxadiazol-2-yl)-2′-(2-(diethylamino)ethoxy)-4-(4-(trifluoromethyl)thiazol-2-yl)-3,3′-bipyridin-6-yl)-3-ethylurea hydrochloride]  102%
36. CCNC(=O)Nc1cc(-c2nc(C(F)(F)F)cs2)c(-c2cnc(C#N)nc2)cn1 [Example 126]  102%
37. CCNC(=O)Nc1cc(-c2nc(-c3ccccn3)cs2)c(-c2cncc(S(C)(=O)=O)c2)cn1 [Example 129]  102%
38. CCNC(=O)Nc1cc(-c2nc(C(F)(F)F)cs2)c(-c2cncc(-c3nnc(N)o3)c2)cn1 [Example 136, 1-(5′-(5-Amino-1,3,4-oxadiazol-2-yl)-4-(4-(trifluoromethyl)thiazol-2-yl)-3,3′-bipyridin-6-yl)-3-ethylurea]  102%
39. CCNC(=O)Nc1cc(-c2nc(C(F)(F)F)cs2)c(-c2cnc(OC)nc2)cn1 [Example 125]  103%
40. CCNC(=O)Nc1cc(-c2nc(-c3ccccc3)cs2)c(-c2ccc[n+]([O-])c2)cn1 [Example 130]  103%
41. CCNC(=O)Nc1cc(-c2nc(C(F)(F)F)cs2)c(-c2cncc(-c3c(C)noc3C)c2)cn1 [Example 133]  104%
42. CCNC(=O)Nc1cc(-c2nc(C(F)(F)F)c(C)s2)c(-c2cncc(-c3nnc(C)o3)c2)cn1 [Example 138, 1-Ethyl-3-(5′-(5-methyl-1,3,4-oxadiazol-2-yl)-4-(5-methyl-4-(trifluoromethyl)thiazol-2-yl)-3,3′-bipyridin-6-yl)urea]  104%
43. CCNC(=O)Nc1cc(-c2nc(C(F)(F)F)cs2)c(-c2cc(-c3nnc(C)o3)cnc2OC2CC(C)(C)N(C)C(C)(C)C2)cn1 [Example 117, 1-Ethyl-3-(5′-(5-methyl-1,3,4-oxadiazol-2-yl)-2′-(1,2,2,6,6-pentamethylpiperidin-4-yloxy)-4-(4-(trifluoromethyl)thiazol-2-yl)-3,3′-bipyridin-6-yl)urea]  105%
44. CCNC(=O)Nc1cc(-c2nc(C(F)(F)F)cs2)c(-c2cncc(-c3nnc(N4CCOCC4)o3)c2)cn1 [Example 154]  105%
45. CCNC(=O)Nc1cc(-c2nc(C(F)(F)F)cs2)c(-c2cc(-c3n[nH]c(=O)o3)cnc2OC(C)CN(C)C)cn1 (stereo not drawn) [Example 118]  118%
46. CCNC(=O)Nc1cc(-c2nc(C(F)(F)F)cs2)c(-c2cc(-c3n[nH]c(=O)o3)cnc2OCCN(C(C)C)C(C)C)cn1 [Example 120]  118%
47. CCNC(=O)Nc1cc(-c2nc(C(F)(F)F)cs2)c(-c2cncc(-c3ccn[nH]3)c2)cn1 [Example 134]  120%

Same assay, conditions: read-out: S. aureus (SAU) GyrB ATPase % Inhibition

Compound CCNC(=O)Nc1cc(-c2nc(C(F)(F)F)cs2)c(-c2cc(-c3n[nH]c(=O)o3)c[n+]([O-])c2)cn1 [Example 139] has an inhibition at 1 µM of 103%.
